Data from patent publication US10138227B2, “Heteroaryl substituted pyridines and methods of use” (AbbVie S.à.r.l., priority 2016, dated 2018).

What was measured:
Assay type in all cases: cell-based
[1] = molecular target: T1, CFTR ΔF508 mutant (Homo sapiens, UniProt P13569, DEL508-508); assay: YFP-halide influx assay for the CFTR-ΔF508 mutation; conditions: CFBE41o- cells expressing CFTR ΔF508 and YFP reporter, forskolin 10.67 μM; for EC50: (1-F/F0) vs concentration
T1 construct: expressed in transfected cells; host or cells: CFBE41o- cells transduced with adenoviral vectors
T1 sequence (P13569 with tags, fused parts or gaps DEL508-508): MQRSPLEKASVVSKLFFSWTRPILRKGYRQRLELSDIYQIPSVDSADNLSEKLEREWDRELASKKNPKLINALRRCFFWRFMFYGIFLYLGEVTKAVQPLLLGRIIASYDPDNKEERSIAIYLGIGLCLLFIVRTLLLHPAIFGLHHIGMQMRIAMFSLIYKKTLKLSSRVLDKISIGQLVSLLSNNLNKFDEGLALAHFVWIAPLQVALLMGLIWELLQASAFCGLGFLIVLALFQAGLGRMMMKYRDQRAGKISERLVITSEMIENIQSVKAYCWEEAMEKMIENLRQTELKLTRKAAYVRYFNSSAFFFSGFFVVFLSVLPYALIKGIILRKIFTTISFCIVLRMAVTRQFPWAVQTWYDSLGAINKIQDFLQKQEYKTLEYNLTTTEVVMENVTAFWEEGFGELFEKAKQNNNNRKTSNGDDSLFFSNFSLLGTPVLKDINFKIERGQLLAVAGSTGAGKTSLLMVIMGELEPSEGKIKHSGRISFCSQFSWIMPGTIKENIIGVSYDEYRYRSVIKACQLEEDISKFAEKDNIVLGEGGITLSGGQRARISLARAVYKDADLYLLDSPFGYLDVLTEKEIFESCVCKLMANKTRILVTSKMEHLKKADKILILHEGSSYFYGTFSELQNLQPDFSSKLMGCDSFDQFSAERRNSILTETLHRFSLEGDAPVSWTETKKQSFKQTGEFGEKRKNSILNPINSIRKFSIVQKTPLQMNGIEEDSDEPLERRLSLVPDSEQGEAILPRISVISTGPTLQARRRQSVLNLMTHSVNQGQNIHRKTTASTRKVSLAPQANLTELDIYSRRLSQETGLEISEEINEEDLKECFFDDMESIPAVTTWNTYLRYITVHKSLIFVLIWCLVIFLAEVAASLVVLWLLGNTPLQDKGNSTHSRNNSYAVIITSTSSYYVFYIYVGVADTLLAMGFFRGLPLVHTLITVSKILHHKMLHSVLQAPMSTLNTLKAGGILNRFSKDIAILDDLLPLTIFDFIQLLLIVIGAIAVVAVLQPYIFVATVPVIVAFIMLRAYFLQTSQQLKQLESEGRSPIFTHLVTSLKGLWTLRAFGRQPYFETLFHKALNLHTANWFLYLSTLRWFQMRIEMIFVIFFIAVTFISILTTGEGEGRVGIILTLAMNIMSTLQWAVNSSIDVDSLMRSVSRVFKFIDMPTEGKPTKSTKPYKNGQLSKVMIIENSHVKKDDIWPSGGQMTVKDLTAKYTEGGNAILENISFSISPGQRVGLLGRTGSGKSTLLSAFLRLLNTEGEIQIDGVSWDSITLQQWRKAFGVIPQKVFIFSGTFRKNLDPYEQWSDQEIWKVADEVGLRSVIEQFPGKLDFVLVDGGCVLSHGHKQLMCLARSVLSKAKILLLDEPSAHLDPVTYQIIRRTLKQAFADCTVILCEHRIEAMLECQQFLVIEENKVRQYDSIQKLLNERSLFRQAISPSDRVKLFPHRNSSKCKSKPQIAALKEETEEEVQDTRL
Text: The YFP halide influx assay measured the functionality of the cystic fibrosis Transmembrane Conductance regulator (CFTR) channels in the cystic fibrosis bronchial epithelium cell line CFBE41o-. The assay was used to evaluate the capacity of compounds to increase the open probability of existing CFTR channels in the membrane. It makes use of the observation that the yellow fluorescent protein (YFP) variant YFP H148Q, I152L, F47L has its fluorescence substantially quenched by halide ions like Cl^− and I^− (Galietta, L. J. V., Haggie, P. M., Verkman, A. S., 2001. Green fluorescent protein-based halide indicators with improved chloride and iodide affinities. FEBS Lett. 499, 220-224. doi:10.1016/S0014-5793(01)02561-3; Nagai, T., Ibata, K., Park, E. S., Kubota, M., Mikoshiba, K., Miyawaki, A., 2002. A variant of yellow fluorescent protein with fast and efficient maturation for cell-biological applications. Nat. Biotechnol. 20, 87-90. doi:10.1038/nbt0102-87).
For this purpose, CFBE410-cells were seeded in 384 well plates (3000 CFBE cells/well). One day after seeding, the CFBE cells were transduced with adenoviral vectors that direct the expression of the CFTR ΔF508 mutant and of the YFP reporter. Cells were incubated at 27° C., 5% CO2 for 24 hours so as to allow for the proper folding and migration to the membrane of the CFTR channel or treated with a CFTR modulator during 24 hours at 37° C.
The I-induced quenching of fluorescence was recorded on an immediately after injection of iodide for 2 minutes on an FDSS/μCell (Hamamatsu). The capacity of a compound to increase the channel opening was directly correlated with the decrease in fluorescence, and was expressed as (1-(fluorescence after 36 seconds (F)/fluorescence before injection (F0))) and an EC50 was derived from a (1-F/F0) vs compound concentration plot.

[2] = molecular target: T2, CFTR G551D mutant (Homo sapiens, UniProt P13569, G551D); assay: YFP-halide influx assay for the CFTR-G551D mutation; conditions: HEK293 cells expressing CFTR G551D and YFP reporter; forskolin 10.67 μM
T2 construct: expressed in transfected cells; host or cells: HEK293 cells, reverse-transfected with plasmid vectors
T2 sequence (P13569 whole entry G551D): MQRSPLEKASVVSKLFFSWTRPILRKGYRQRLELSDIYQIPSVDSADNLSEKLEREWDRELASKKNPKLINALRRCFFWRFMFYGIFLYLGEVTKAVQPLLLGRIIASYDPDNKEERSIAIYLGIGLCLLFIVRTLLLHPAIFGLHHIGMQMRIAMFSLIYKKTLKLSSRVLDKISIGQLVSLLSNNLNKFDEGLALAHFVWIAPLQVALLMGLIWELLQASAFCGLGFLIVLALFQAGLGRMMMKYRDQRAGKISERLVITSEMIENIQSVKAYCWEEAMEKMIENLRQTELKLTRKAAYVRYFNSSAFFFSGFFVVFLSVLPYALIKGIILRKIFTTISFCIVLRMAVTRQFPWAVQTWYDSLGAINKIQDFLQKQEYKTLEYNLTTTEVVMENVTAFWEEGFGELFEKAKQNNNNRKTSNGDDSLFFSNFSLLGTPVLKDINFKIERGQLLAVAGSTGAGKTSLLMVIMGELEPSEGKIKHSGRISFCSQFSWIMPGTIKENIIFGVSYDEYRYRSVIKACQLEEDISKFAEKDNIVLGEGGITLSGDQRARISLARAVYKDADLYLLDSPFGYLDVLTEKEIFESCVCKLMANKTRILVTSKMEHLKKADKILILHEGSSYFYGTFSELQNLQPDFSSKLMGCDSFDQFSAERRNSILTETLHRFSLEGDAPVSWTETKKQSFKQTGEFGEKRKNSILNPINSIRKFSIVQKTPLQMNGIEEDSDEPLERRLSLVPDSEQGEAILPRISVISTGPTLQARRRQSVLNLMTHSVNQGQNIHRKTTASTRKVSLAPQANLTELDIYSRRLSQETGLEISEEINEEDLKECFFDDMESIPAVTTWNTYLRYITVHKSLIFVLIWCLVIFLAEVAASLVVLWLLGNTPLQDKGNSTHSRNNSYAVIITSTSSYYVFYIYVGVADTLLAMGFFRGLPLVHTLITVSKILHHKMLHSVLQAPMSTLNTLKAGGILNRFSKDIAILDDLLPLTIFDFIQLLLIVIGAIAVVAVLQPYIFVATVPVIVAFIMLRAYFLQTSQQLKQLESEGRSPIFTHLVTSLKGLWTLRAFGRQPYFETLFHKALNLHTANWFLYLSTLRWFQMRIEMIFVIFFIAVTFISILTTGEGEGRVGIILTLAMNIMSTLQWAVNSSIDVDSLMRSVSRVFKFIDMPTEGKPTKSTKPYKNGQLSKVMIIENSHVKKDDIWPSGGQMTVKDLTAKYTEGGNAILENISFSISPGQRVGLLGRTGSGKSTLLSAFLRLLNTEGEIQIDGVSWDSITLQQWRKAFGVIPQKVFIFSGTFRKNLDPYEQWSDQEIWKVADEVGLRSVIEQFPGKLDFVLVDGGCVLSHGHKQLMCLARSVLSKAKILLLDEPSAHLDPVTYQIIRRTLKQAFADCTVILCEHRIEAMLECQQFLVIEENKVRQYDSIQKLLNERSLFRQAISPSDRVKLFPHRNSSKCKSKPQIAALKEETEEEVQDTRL
Text: (§1) The YFP halide influx assay measured the functionality of the cystic fibrosis Transmembrane Conductance regulator (CFTR) channels. The assay was used to evaluate the capacity of compounds to increase the channel opening of existing mutant CFTR channels in the membrane. It makes use of the observation that the yellow fluorescent protein (YFP) variant YFP H148Q, I152L, F47L has its fluorescence substantially quenched by halide ions like Cl^− and I^− (Galietta, L. J. V., Haggie, P. M., Verkman, A. S., 2001. Green fluorescent protein-based halide indicators with improved chloride and iodide affinities. FEBS Lett. 499, 220-224. doi:10.1016/S0014-5793(01)02561-3).
(§2) For this purpose, HEK293-cells were seeded in 96 well plates. During seeding, the cells were reverse-transfected with plasmid vectors that direct the expression of the CFTR G551D mutant and of the YFP reporter. Cells were incubated at 37° C., 5% CO2 for 24 hours so as to allow for sufficient expression of the CFTR protein.
(§3) The I^−-induced quenching of fluorescence was recorded immediately after injection of I^− for 7 seconds. The capacity of a compound to increase the channel opening was directly correlated with the decrease in fluorescence, and was expressed as (1-(fluorescence after 7 seconds (F)/fluorescence before injection (F0))) and an EC50 was derived from a (1−F/F0) vs compound concentration plot.

[3] = molecular target: T3, CFTR-G178R (Homo sapiens, UniProt P13569, G178R); assay: YFP-halide influx assay for the CFTR-G178R
T3 construct: expressed in transfected cells; HEK293 with plasmid vectors inferred from the G551D protocol, to which the assay is called similar
T3 sequence (P13569 whole entry G178R): as the sequence (P13569 whole entry G551D) above, with G178R, D551G counted along it
Text: as §1, §2, §3
(§4) Similar YHA assays were developed for other channel gating defective or channel conductance defective CFTR mutants to determine effect of compound on channel activity. Examples of mutants are G178R, G1349D, S549N, R117H, R334W. This assay is also used for additional class I CFTR mutants, including G542X, W1282X; class II mutants including N1303K, and for class III mutants including S1251N; or wild-type CFTR.

[4] = molecular target: T4, CFTR-G1349D (Homo sapiens, UniProt P13569, G1349D); assay: YFP-halide influx assay for the CFTR-G1349D
T4 construct: expressed in transfected cells; HEK293 with plasmid vectors inferred from the G551D protocol, to which the assay is called similar
T4 sequence (P13569 whole entry G1349D): as the sequence (P13569 whole entry G551D) above, with D551G, G1349D counted along it
Text: as §1, §2, §3, §4

[5] = molecular target: T5, CFTR-S549N (Homo sapiens, UniProt P13569, S549N); assay: YFP-halide influx assay for the CFTR-S549N
T5 construct: expressed in transfected cells; HEK293 with plasmid vectors inferred from the G551D protocol, to which the assay is called similar
T5 sequence (P13569 whole entry S549N): as the sequence (P13569 whole entry G551D) above, with S549N, D551G counted along it
Text: as §1, §2, §3, §4

[6] = molecular target: T6, CFTR-R117H (Homo sapiens, UniProt P13569, R117H); assay: YFP-halide influx assay for the CFTR-R117H
T6 construct: expressed in transfected cells; HEK293 with plasmid vectors inferred from the G551D protocol, to which the assay is called similar
T6 sequence (P13569 whole entry R117H): as the sequence (P13569 whole entry G551D) above, with R117H, D551G counted along it
Text: as §1, §2, §3, §4

| SMILES | % Activation [1] [%] | EC50 [1] [nM] | also measured |
| --- | --- | --- | --- |
| CC(O)(c1nnc(-c2ncc(S(=O)(=O)c3ccc(OC(F)(F)F)cc3)cc2N)o1)C(F)(F)F (centres unmarked) [Compound 3, 2-(5-{3-amino-5-[4-(trifluoromethoxy)benzene-1-sulfonyl]pyridin-2-yl}-1,3,4-oxadiazol-2-yl)-1,1,1-trifluoropropan-2-ol] | 120.51 | 2.36 | % Activation [2]: 49.0%; EC50 [2]: 181 nM; % Activation [3]: 57.4%; EC50 [3]: 1440 nM; % Activation [4]: 58.6%; EC50 [4]: 44.9 nM; % Activation [5]: 56.3%; EC50 [5]: 55.9 nM; % Activation [6]: 89.0%; EC50 [6]: 35.5 nM |
| Nc1cc(S(=O)(=O)c2ccc(OC(F)(F)F)cc2)cnc1-c1ncc(CO)s1 [Compound 5, (2-{3-amino-5-[4-(trifluoromethoxy)benzene-1-sulfonyl]pyridin-2-yl}-1,3-thiazol-5-yl)methanol] | 58.29 | > 667 | % Activation [2]: 0.3%; EC50 [2]: > 10000 nM |
| Nc1cc(S(=O)(=O)c2ccc(OC(F)(F)F)cc2)cnc1-c1nc(CC2CC2)no1 [Compound 50, 2-[3-(cyclopropylmethyl)-1,2,4-oxadiazol-5-yl]-5-[4-(trifluoromethoxy)benzene-1-sulfonyl]pyridin-3-amine] | 45.59 | > 1660 |  |
| Nc1cc(S(=O)(=O)c2ccc(OC(F)(F)F)cc2)cnc1-c1nc(CC2CCCO2)no1 (centres unmarked) [Compound 51, 2-{3-[(oxolan-2-yl)methyl]-1,2,4-oxadiazol-5-yl}-5-[4-(trifluoromethoxy)benzene-1-sulfonyl]pyridin-3-amine] | 23.23 | > 3320 |  |
| Nc1cc(S(=O)(=O)c2ccc(OC(F)(F)F)cc2)cnc1-c1nc(C2CC2)no1 [Compound 52, 2-(3-cyclopropyl-1,2,4-oxadiazol-5-yl)-5-[4-(trifluoromethoxy)benzene-1-sulfonyl]pyridin-3-amine] | 3.42 | > 4990 |  |
| Nc1cc(S(=O)(=O)c2ccc(OC(F)(F)F)cc2)cnc1-c1nc(C2CCOC2)no1 (centres unmarked) [Compound 53, 2-[3-(oxolan-3-yl)-1,2,4-oxadiazol-5-yl]-5-[4-(trifluoromethoxy)benzene-1-sulfonyl]pyridin-3-amine] | 15.28 | > 4990 |  |
| CC(C)(C)c1noc(-c2ncc(S(=O)(=O)c3ccc(OC(F)(F)F)cc3)cc2N)n1 [Compound 54, 2-(3-tert-butyl-1,2,4-oxadiazol-5-yl)-5-[4-(trifluoromethoxy)benzene-1-sulfonyl]pyridin-3-amine] | 12.02 | > 4990 |  |
| COCCc1noc(-c2ncc(S(=O)(=O)c3ccc(OC(F)(F)F)cc3)cc2N)n1 [Compound 55, 2-[3-(2-methoxyethyl)-1,2,4-oxadiazol-5-yl]-5-[4-(trifluoromethoxy)benzene-1-sulfonyl]pyridin-3-amine] | 2.76 | > 4990 |  |
| Nc1c(-c2nnc(CO)o2)ncc(S(=O)(=O)c2ccc(OC(F)(F)F)cc2)c1Cl [Compound 57, (5-{3-amino-4-chloro-5-[4-(trifluoromethoxy)benzene-1-sulfonyl]pyridin-2-yl}-1,3,4-oxadiazol-2-yl)methanol] | 93.64 | 2.41 |  |
| Nc1cc(S(=O)(=O)c2cccc(OC(F)(F)F)c2)cnc1-c1nnc(CO)o1 [Compound 58, (5-{3-amino-5-[3-(trifluoromethoxy)benzene-1-sulfonyl]pyridin-2-yl}-1,3,4-oxadiazol-2-yl)methanol] | 104.91 | 3.51 |  |
| Nc1cc(S(=O)(=O)c2ccccc2OC(F)(F)F)cnc1-c1nnc(CO)o1 [Compound 59, (5-{3-amino-5-[2-(trifluoromethoxy)benzene-1-sulfonyl]pyridin-2-yl}-1,3,4-oxadiazol-2-yl)methanol] | 106.56 | 4.25 |  |
| CN(Cc1ccccc1)S(=O)(=O)c1cnc(-c2nnc(CO)o2)c(N)c1 [Compound 60, 5-amino-N-benzyl-6-[5-(hydroxymethyl)-1,3,4-oxadiazol-2-yl]-N-methylpyridine-3-sulfonamide] | 122.9 | 15.3 |  |
| Nc1cc(S(=O)(=O)c2ccccc2)cnc1-c1nnc(CO)o1 [Compound 61, {5-[3-amino-5-(benzenesulfonyl)pyridin-2-yl]-1,3,4-oxadiazol-2-yl}methanol] | 97.36 | 97.4 |  |
| Nc1cc(S(=O)(=O)c2ccc(C(F)(F)F)cc2)cnc1-c1nnc(CO)s1 [Compound 62, (5-{3-amino-5-[4-(trifluoromethyl)benzene-1-sulfonyl]pyridin-2-yl}-1,3,4-thiadiazol-2-yl)methanol] | 113 | < 0.44 |  |
| Nc1cc(S(=O)(=O)c2ccc(OC(F)(F)F)cc2)c(Br)nc1-c1nnc(CO)o1 [Compound 63, (5-{3-amino-6-bromo-5-[4-(trifluoromethoxy)benzene-1-sulfonyl]pyridin-2-yl}-1,3,4-oxadiazol-2-yl)methanol] | 109.95 | < 0.39 |  |
| Nc1cc(S(=O)(=O)c2ccc(OC(F)(F)F)cc2)c(Cl)nc1-c1nnc(CO)o1 [Compound 64, (5-{3-amino-6-chloro-5-[4-(trifluoromethoxy)benzene-1-sulfonyl]pyridin-2-yl}-1,3,4-oxadiazol-2-yl)methanol] | 122 | < 0.46 |  |
| CC(C)c1ccccc1S(=O)(=O)c1cnc(-c2nnc(CO)o2)c(N)c1 [Compound 65, (5-{3-amino-5-[2-(propan-2-yl)benzene-1-sulfonyl]pyridin-2-yl}-1,3,4-oxadiazol-2-yl)methanol] | 106.55 | < 1.05 |  |
| Nc1c(-c2nnc(CO)o2)ncc(S(=O)(=O)c2ccc(OC(F)(F)F)cc2)c1Br [Compound 66, (5-{3-amino-4-bromo-5-[4-(trifluoromethoxy)benzene-1-sulfonyl]pyridin-2-yl}-1,3,4-oxadiazol-2-yl)methanol] | <1.18 |  |  |
